In ChEMBL document CHEMBL3397019, “Enhancement of antioxidant effects of naringin after atmospheric pressure dielectric barrier discharge plasma treatment” (Bioorg Med Chem Lett, 2015):
pIC50: −log10 of the molar value.

Columns and labels:
Assay type in all cases: physicochemical
[1] = Antioxidant activity assessed as ONOO- scavenging activity
[2] = Antioxidant activity assessed as DPPH free radical scavenging activity
[3] = Antioxidant activity assessed as DPPH free radical scavenging activity using plasma treated compound
[4] = Antioxidant activity assessed as ONOO- scavenging activity using plasma treated compound

| Compound | pIC50 [1] | pIC50 [2] | pIC50 [3] | pIC50 [4] |
| --- | --- | --- | --- | --- |
| CC(C)(S)[C@H](N)C(=O)O | 5.28 |  |  |  |
| COCO[C@H]1[C@H](O)[C@@H](O[C@@H]2O[C@H](C)[C@@H](O)[C@H](O)[C@H]2O)[C@H](Oc2cc(O)c3c(c2)O[C@@H](c2ccc(O)cc2)CC3=O)O[C@@H]1CO | 5.39 | 4.24 |  |  |
| COCO[C@H]1[C@H](O)[C@@H](O)[C@H](O[C@H]2[C@H](Oc3cc(O)c4c(c3)O[C@H](c3ccc(O)cc3)CC4=O)O[C@H](CO)[C@@H](O)[C@@H]2O)O[C@@H]1C | 3.59 | 3.83 |  |  |
| Oc1cc(O)c2c(c1)O[C@H](c1ccc(O)c(O)c1)[C@@H](O)C2 [CIANIDANOL] |  | 4.62 |  |  |

Next, values leading:

| pIC50 [1] | pIC50 [2] | pIC50 [3] | pIC50 [4] | Compound |
| --- | --- | --- | --- | --- |
| < 3.52 | 4.03 |  |  | C[C@H]1O[C@@H](O[C@H]2[C@H](Oc3cc(O)c4c(c3)O[C@@H](c3ccc(O)cc3)CC4=O)O[C@H](CO)[C@@H](O)[C@@H]2O)[C@H](O)[C@@H](O)[C@@H]1O |
| < 3.52 | < 3.52 |  |  | C[C@H]1O[C@@H](O[C@H]2[C@H](Oc3cc(O)c4c(c3)O[C@H](c3ccc(O)cc3)CC4=O)O[C@H](CO)[C@@H](O)[C@@H]2O)[C@H](O)[C@@H](O)[C@@H]1O |
|  |  | 3.96 | 4.81 | C[C@@H]1O[C@@H](O[C@H]2[C@H](Oc3cc(O)c4c(c3)O[C@H](c3ccc(O)cc3)CC4=O)O[C@H](CO)[C@@H](O)[C@@H]2O)[C@H](O)[C@H](O)[C@H]1O [NARINGIN] |
